9 compounds from ChEMBL document CHEMBL3739261, “Synthesis and antibacterial activity evaluation of C-5 side chain modified analogues of FYL-66, a potential agent against methicillin-resistant Staphylococcus aureus” (Medchemcomm, 2015) can be followed below.

In series [1] the test system is Staphylococcus aureus. Description: Antibacterial activity against methicillin-resistant Staphylococcus aureus ATCC 43300 incubated for 18 hrs by broth microdilution method. Format: functional. As to conditions: ATCC 43300, 18 h.
Another series relates to Pseudomonas aeruginosa. Description: Antibacterial activity against Pseudomonas aeruginosa ATCC 27853 incubated for 18 hrs by broth microdilution method. Format: functional. As to conditions: ATCC 27853, 18 h.
The next series relates to Escherichia coli. Description: Antibacterial activity against Escherichia coli ATCC 25922 incubated for 18 hrs by broth microdilution method. Format: functional. As to conditions: ATCC 25922, 18 h.
A short description of series [2]: Solubility of compound in distilled water after 24 hrs by HPLC analysis. Format: physicochemical.
The subject of series [3] is Staphylococcus aureus. Description: Antibacterial activity against methicillin-susceptible Staphylococcus aureus ATCC 25923 incubated for 18 hrs by broth microdilution method. As to conditions: ATCC 25923, 18 h. Format: functional.
Series [4] has as its system Staphylococcus aureus. Description: Antibacterial activity against methicillin-susceptible Staphylococcus aureus ATCC 29213 incubated for 18 hrs by broth microdilution method. The format is functional. As to conditions: ATCC 29213, 18 h.
The test system of series [5] is Staphylococcus aureus. Kind of series: Antibacterial activity against methicillin-susceptible Staphylococcus aureus ATCC 6538 incubated for 18 hrs by broth microdilution method. The format is functional. As to conditions: ATCC 6538, 18 h.
Series [6] is described as follows: Octanol/water partition coefficient, log P of the compound by HPLC assay. Format: physicochemical.
Series [7] is described as follows: Cytotoxicity against human L02 cells after 48 hrs by MTT assay. As to conditions: L02, 48 h. Format: cell-based.
For series [8], the system named is Staphylococcus aureus. Kind of series: Antibacterial activity against methicillin-resistant Staphylococcus aureus ATCC 33591 incubated for 18 hrs by broth microdilution method. The format is functional. As to conditions: ATCC 33591, 18 h.
Series [9] has as its system Staphylococcus aureus. Description: Antibacterial activity against methicillin-susceptible Staphylococcus aureus CMCC 2603 incubated for 18 hrs by broth microdilution method. As to conditions: CMCC 2603, 18 h. The format is functional.
The nature of series [10]: Cytotoxicity against HEK293A cells after 48 hrs by MTT assay. The format is cell-based. As to conditions: Homo sapiens, HEK293-A.

Values after ≈ are worked out from the molar mass of the structure shown.

Regarding `COC[C@H]1CN(c2ccc(-n3cc(-c4ccccn4)cn3)c(F)c2)C(=O)O1`, the MIC with Staphylococcus aureus [1], with Pseudomonas aeruginosa, against Escherichia coli, against Staphylococcus aureus [3], against Staphylococcus aureus [4] and in the series with Staphylococcus aureus [5] was greater than 32 µg/mL each time. Also, the MIC in the series with Staphylococcus aureus [8] and against Staphylococcus aureus [9] was greater than 32 µg/mL in each case. This compound also showed a solubility at 24 h in series [2] of 36.2 µM (≈ 13.3 µg/mL). In series [6], this compound gave a logP of 2.18. The IC50 in series [7] and in series [10] was greater than 400 µg/mL each time.

With `O=C(OC[C@H]1CN(c2ccc(-n3cc(-c4ccccn4)cn3)c(F)c2)C(=O)O1)c1ccccc1`, the MIC against Staphylococcus aureus [1], against Pseudomonas aeruginosa, against Escherichia coli, in the series with Staphylococcus aureus [3], in the series with Staphylococcus aureus [4] and against Staphylococcus aureus [5] was greater than 32 µg/mL in each case. For the same compound, the MIC with Staphylococcus aureus [8] and in the series on Staphylococcus aureus [9] was greater than 32 µg/mL in each case. This compound came in with a solubility at 24 h in series [2] of no more than 65.4 µM. Also, the logP in series [6] is 4.21. The IC50 in series [7] and in [10] was greater than 400 µg/mL in each case.

As to `O=C1O[C@@H](Cn2ccnn2)CN1c1ccc(-n2cc(-c3ccccn3)cn2)c(F)c1`, the MIC was 4 µg/mL (≈ 9.87 µM) against Staphylococcus aureus [1]; greater than 32 µg/mL against Pseudomonas aeruginosa; greater than 32 µg/mL with Escherichia coli; 4 µg/mL (≈ 9.87 µM) against Staphylococcus aureus [3]; 4 µg/mL (≈ 9.87 µM) against Staphylococcus aureus [4]; 4 µg/mL (≈ 9.87 µM) in the series with Staphylococcus aureus [5]. Besides, the MIC against Staphylococcus aureus [8] and with Staphylococcus aureus [9] was 4 µg/mL (≈ 9.87 µM) throughout. This compound had a solubility at 24 h in series [2] of 247 µM (≈ 100 µg/mL). The logP in series [6] came to 2. Further, the IC50 amounted to 49 µg/mL (≈ 121 µM) in [7] and 225 µg/mL (≈ 555 µM) in [10].

In the case of `CONC(=O)[C@H]1CN(c2ccc(-n3cc(-c4ccccn4)cn3)c(F)c2)C(=O)O1`, the MIC was 16 µg/mL (≈ 40.3 µM) in the series with Staphylococcus aureus [1]; greater than 32 µg/mL in the series with Pseudomonas aeruginosa; greater than 32 µg/mL in the series with Escherichia coli; 16 µg/mL (≈ 40.3 µM) with Staphylococcus aureus [3]; 16 µg/mL (≈ 40.3 µM) against Staphylococcus aureus [4]; 16 µg/mL (≈ 40.3 µM) with Staphylococcus aureus [5]. In addition, the MIC against Staphylococcus aureus [8] and in the series on Staphylococcus aureus [9] was 16 µg/mL (≈ 40.3 µM) throughout. For the same compound, the concentration in solution in [2] (solubility at 24 h) came to 78.1 µM (≈ 31 µg/mL). In [6], this compound displayed a logP of no less than 1.58. The IC50 in series [7] and in series [10] was greater than 400 µg/mL throughout.

For `CN(C)S(=O)(=O)NC[C@H]1CN(c2ccc(-n3cc(-c4ccccn4)cn3)c(F)c2)C(=O)O1`, the MIC against Staphylococcus aureus [1], in the series with Pseudomonas aeruginosa, with Escherichia coli, in the series with Staphylococcus aureus [3], against Staphylococcus aureus [4] and against Staphylococcus aureus [5] was greater than 32 µg/mL each time. Moreover, the minimum inhibitory concentration (MIC) against Staphylococcus aureus [8] and with Staphylococcus aureus [9] was greater than 32 µg/mL each time. This compound registered a solubility at 24 h in series [2] of 472 µM (≈ 217 µg/mL). The compound further had a logP in [6] of 1.38. Also, the IC50 is 158 µg/mL (≈ 343 µM) in series [7] and 249 µg/mL (≈ 541 µM) in series [10].

As for `CN(CCO)C[C@H]1CN(c2ccc(-n3cc(-c4ccccn4)cn3)c(F)c2)C(=O)O1`, the MIC against Staphylococcus aureus [1], against Pseudomonas aeruginosa, against Escherichia coli, in the series on Staphylococcus aureus [3], against Staphylococcus aureus [4] and with Staphylococcus aureus [5] was greater than 32 µg/mL in each case. The MIC against Staphylococcus aureus [8] and with Staphylococcus aureus [9] was greater than 32 µg/mL throughout. Besides, the concentration in solution in series [2] (solubility at 24 h) came to 669 µM (≈ 275 µg/mL). The logP in [6] was found to be 1.44. Also, the figures for the IC50 in [7] and in [10] were 134 µg/mL (≈ 326 µM) and 367 µg/mL (≈ 892 µM), respectively.

Turning to `O=C1CNC(=O)N1C[C@H]1CN(c2ccc(-n3cc(-c4ccccn4)cn3)c(F)c2)C(=O)O1`, the MIC in the series on Staphylococcus aureus [1], against Pseudomonas aeruginosa, with Escherichia coli, in the series on Staphylococcus aureus [3], against Staphylococcus aureus [4] and with Staphylococcus aureus [5] was greater than 32 µg/mL throughout. Also, the MIC in the series on Staphylococcus aureus [8] and in the series on Staphylococcus aureus [9] was greater than 32 µg/mL each time. The same compound yielded a solubility at 24 h in series [2] of 1630 µM (≈ 713 µg/mL). The logP in series [6] is 1.25. Further, the IC50 in series [7] and in series [10] was greater than 400 µg/mL throughout.

Take `O=CNC[C@H]1CN(c2ccc(-n3cc(-c4ccccn4)cn3)c(F)c2)C(=O)O1`: the MIC was 8 µg/mL (≈ 21 µM) with Staphylococcus aureus [1]; greater than 32 µg/mL against Pseudomonas aeruginosa; greater than 32 µg/mL with Escherichia coli; 8 µg/mL (≈ 21 µM) in the series with Staphylococcus aureus [3]; 8 µg/mL (≈ 21 µM) with Staphylococcus aureus [4]; 8 µg/mL (≈ 21 µM) in the series with Staphylococcus aureus [5]. Also, the MIC in the series on Staphylococcus aureus [8] and against Staphylococcus aureus [9] was 8 µg/mL (≈ 21 µM) each time. Besides, in series [2], the solubility at 24 h was 217 µM (≈ 82.8 µg/mL). The same compound returned a logP in series [6] of 1.19. The IC50 in series [7] and in series [10] was greater than 400 µg/mL each time.

Regarding `CCC(=O)NC[C@H]1CN(c2ccc(-n3cc(-c4ccccn4)cn3)c(F)c2)C(=O)O1`, the MIC was 4 µg/mL (≈ 9.77 µM) in the series on Staphylococcus aureus [1]; greater than 32 µg/mL with Pseudomonas aeruginosa; greater than 32 µg/mL against Escherichia coli; 4 µg/mL (≈ 9.77 µM) against Staphylococcus aureus [3]; 4 µg/mL (≈ 9.77 µM) with Staphylococcus aureus [4]; 4 µg/mL (≈ 9.77 µM) in the series with Staphylococcus aureus [5]. The MIC with Staphylococcus aureus [8] and against Staphylococcus aureus [9] was 4 µg/mL (≈ 9.77 µM) in each case. The compound also displayed a solubility at 24 h in series [2] of 147 µM (≈ 60 µg/mL). In addition, the logP in series [6] is 2.2. Also, the figures for the IC50 in series [7] and in series [10] were 204 µg/mL (≈ 498 µM) and 389 µg/mL (≈ 950 µM), respectively.
